Measurements published in paper PMC7601397, “Discovery of Sulforaphane as a Potent BACE1 Inhibitor Based on Kinetics and Computational Studies” (Nutrients, 2020).

Target: BACE1 (Homo sapiens, UniProt P56817)
Assay: FRET enzyme assay (kit); Dixon and Lineweaver-Burk kinetics
Format: biochemical

Chain of BACE1 (P56817 46-457): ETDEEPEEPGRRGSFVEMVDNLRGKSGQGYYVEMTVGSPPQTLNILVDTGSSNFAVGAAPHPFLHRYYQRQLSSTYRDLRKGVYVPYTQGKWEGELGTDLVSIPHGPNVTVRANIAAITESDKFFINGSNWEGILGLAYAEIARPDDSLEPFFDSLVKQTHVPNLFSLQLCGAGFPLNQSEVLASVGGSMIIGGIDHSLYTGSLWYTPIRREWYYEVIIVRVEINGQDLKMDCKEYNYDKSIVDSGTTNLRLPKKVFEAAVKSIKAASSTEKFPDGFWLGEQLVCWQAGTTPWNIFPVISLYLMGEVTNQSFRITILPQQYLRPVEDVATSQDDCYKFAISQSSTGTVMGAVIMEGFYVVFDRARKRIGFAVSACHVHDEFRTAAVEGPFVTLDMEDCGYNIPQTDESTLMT

## C[S+]([O-])CCCCN=C=S (stereo not shown) [Sulforaphane]
  Ki: 3.1 µM
